From ChEMBL document CHEMBL2069257, “A fluorescent reporter of ATP binding-competent receptor kinases” (Bioorg Med Chem Lett, 2012)
Active and inactive are the calls of the source. The rule behind the calls is not given here.

Tests used:
[1] = target: Proto-oncogene tyrosine-protein kinase Src (Homo sapiens) (UniProt P12931); assay: Inhibition of SRC using biotinylated HNRNPK as substrate at 0.2 to 6 uM by blotting method
[2] = target: T1, Receptor tyrosine-protein kinase erbB-2 (Homo sapiens, UniProt P04626); assay: Binding affinity to full-length/His-tagged ERBB2 UV-vis emission spectroscopy
T1 sequence (P04626 whole entry): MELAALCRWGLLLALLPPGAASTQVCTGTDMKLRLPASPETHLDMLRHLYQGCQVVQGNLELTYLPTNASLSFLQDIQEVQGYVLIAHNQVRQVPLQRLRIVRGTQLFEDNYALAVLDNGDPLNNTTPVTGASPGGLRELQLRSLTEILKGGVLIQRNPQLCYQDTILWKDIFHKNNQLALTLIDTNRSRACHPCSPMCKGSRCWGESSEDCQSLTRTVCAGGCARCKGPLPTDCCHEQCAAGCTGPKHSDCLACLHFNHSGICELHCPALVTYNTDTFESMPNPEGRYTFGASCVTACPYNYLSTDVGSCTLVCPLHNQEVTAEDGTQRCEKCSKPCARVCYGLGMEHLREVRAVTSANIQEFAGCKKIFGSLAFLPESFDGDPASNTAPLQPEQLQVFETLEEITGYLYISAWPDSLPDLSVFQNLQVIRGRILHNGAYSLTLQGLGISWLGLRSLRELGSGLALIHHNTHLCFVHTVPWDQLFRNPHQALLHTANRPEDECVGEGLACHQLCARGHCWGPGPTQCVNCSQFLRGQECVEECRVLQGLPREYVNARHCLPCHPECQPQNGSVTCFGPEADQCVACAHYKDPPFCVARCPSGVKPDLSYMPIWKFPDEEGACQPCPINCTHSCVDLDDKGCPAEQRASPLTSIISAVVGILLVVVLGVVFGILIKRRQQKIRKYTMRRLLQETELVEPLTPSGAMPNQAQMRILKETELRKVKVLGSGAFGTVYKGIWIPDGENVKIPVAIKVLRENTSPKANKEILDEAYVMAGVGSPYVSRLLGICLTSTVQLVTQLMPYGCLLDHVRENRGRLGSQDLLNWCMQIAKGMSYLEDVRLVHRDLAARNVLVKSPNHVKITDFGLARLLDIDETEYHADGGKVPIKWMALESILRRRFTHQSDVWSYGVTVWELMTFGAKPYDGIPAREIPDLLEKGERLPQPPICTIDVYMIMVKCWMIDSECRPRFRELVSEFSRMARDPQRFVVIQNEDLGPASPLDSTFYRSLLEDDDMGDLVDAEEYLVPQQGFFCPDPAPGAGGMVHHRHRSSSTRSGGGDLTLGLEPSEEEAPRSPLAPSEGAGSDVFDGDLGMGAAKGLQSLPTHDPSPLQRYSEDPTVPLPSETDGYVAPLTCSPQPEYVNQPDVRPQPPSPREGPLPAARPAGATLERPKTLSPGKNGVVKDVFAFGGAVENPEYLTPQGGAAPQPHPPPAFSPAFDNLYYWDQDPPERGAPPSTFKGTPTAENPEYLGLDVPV

[3] = target: T1, Receptor tyrosine-protein kinase erbB-2; assay: Inhibition of full-length/His-tagged ERBB2 overexpressed in human MCF7 cells assessed as inhibition of AKT phosphorylation at 0.2 to 6 uM after 12 hrs by Western blot analysis; type: cell-based
[4] = target: T1, Receptor tyrosine-protein kinase erbB-2; assay: Inhibition of truncated soluble ERBB2 expressed in human MCF7 cell lysate at 1 to 10 uM after mCherry fluorescence assay pretreated with canertinib before lysis; type: cell-based
[5] = target: Proto-oncogene tyrosine-protein kinase Src (Homo sapiens) (UniProt P12931); assay: Inhibition of SRC using biotinylated HNRNPK as substrate up to 6 uM by blotting method
[6] = target: T1, Receptor tyrosine-protein kinase erbB-2; assay: Inhibition of truncated soluble ERBB2 expressed in human MCF7 cell lysate at 1 to 10 uM after mCherry fluorescence assay; type: cell-free
[7] = target: T1, Receptor tyrosine-protein kinase erbB-2; assay: Inhibition of ERBB2 autophosphorylation Tyr 1139 residue in human BT474 cells at 2 to 14 uM after 12 hrs by Western blotting

Sequence of Proto-oncogene tyrosine-protein kinase Src (Homo sapiens) (P12931 2-536 limits assumed): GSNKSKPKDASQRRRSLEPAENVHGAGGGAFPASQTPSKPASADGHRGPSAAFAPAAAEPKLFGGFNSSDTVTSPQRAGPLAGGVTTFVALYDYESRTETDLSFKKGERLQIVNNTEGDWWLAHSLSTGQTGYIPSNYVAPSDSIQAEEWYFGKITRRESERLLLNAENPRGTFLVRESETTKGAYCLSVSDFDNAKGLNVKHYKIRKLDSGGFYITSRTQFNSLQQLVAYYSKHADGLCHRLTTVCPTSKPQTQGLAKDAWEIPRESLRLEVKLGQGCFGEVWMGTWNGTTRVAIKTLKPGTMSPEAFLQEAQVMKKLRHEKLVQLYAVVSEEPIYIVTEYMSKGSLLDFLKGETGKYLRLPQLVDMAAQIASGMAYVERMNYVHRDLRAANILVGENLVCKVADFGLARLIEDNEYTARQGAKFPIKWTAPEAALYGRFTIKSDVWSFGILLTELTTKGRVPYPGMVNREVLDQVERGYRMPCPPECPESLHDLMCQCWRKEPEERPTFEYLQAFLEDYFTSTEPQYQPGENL

Row | inhibition [1] | Kd [2] [µM] | inhibition [3] | inhibition [4] | inhibition [5] | inhibition [6] | Ki [7] [µM] | Structure (SMILES)
1 | Active | – | – | – | – | – | – | Cc1ccc(-c2nn(C(C)(C)C)c3ncnc(N)c23)cc1
2 | – | 2.9 | inactive | inactive | inactive | Active | 3.1 | CN(C)c1ccc(/C=C/c2ccc3ncnc(NCc4ccccc4)c3c2)cc1
